Measurements as given in patent US9981934B2, “Enzyme-specific fluorescent compound capable of being retained in cells” (The University of Tokyo, priority 2014, dated 2018).

Legend:
β-galactosidase [1] = molecular target: T1, β-galactosidase (Escherichia coli, UniProt P00722); format: biochemical; settings: 2.5 μM compound, 0.5 mg/mL BSA; for fluorescence at the band of BSA after SDS-PAGE: 5 U β-galactosidase, excitation 488 nm
Method: (1) 2.5 μM 4-CH2F-HMDER-βGal and 0.5 mg/mL BSA, (2) 2.5 μM 4-CH2F-HMDER-βGal, 0.5 mg/mL BSA, and 5 U of β-galactosidase, (3) 2.5 μM 4-CHF2-HMDER-βGal, 0.5 mg/mL BSA, and 5 U of β-galactosidase, (4) 2.5 μM 2-CHF2-HMDER-βGal, 0.5 mg/mL BSA, and 5 U of β-galactosidase, and (5) 2.5 μM HMDER-βGal, 0.5 mg/mL BSA, and 5 U of β-galactosidase were each reacted in aqueous solution (500 mM sodium phosphate buffer solution having a pH of 7.4), after which the reaction products were subjected to SDS-PAGE (running gel: 10%, stacking gel: 4%, electrophoresis voltage: 200 V). […] After observation, each gel was Coomassie stained and the position of the BSA on the gel was confirmed (FIG. 4(b)).

HEK-lacZ cell lysate = molecular target: T2, HEK-lacZ cell lysate (Escherichia coli, UniProt P00722); format: biochemical; settings: 2.5 μM compound; for fluorescence labeling of intracellular protein after SDS-PAGE: 1.5 mg/mL HEK-lacZ cell lysate, 30 minutes 37° C.
T2 construct: expressed in transfected cells; host or cells: HEK cells (HEK-lacZ), used as cell lysate
T2 sequence (P00722 whole entry): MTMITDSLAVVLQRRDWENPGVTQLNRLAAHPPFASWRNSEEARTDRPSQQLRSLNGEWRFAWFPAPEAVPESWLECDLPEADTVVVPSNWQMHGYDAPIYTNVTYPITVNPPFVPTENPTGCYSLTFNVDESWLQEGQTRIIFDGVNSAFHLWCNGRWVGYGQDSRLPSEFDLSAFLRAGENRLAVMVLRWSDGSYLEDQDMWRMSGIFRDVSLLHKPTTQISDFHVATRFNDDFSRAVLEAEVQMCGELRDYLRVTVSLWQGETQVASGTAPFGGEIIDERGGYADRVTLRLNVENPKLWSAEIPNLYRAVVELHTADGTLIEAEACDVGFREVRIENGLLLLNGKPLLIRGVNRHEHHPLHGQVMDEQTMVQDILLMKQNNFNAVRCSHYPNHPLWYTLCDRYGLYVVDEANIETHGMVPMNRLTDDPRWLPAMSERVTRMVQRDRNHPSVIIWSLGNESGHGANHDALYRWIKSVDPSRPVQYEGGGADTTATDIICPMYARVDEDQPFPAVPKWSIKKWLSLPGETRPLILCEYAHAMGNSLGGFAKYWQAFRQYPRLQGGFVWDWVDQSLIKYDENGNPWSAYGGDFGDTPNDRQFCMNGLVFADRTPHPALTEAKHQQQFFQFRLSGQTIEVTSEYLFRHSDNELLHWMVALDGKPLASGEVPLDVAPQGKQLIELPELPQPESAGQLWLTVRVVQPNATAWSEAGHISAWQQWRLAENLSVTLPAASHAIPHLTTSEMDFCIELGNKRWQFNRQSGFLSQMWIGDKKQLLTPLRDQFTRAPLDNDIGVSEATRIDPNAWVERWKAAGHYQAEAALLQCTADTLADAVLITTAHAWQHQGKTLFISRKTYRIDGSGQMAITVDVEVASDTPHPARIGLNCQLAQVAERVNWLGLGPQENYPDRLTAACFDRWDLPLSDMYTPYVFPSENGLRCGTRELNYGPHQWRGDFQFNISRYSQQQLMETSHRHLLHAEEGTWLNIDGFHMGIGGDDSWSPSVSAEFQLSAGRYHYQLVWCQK
From the text: HEK cells (HEK-lacZ cells) expressing β-galactosidase and HEK cells were used.

β-galactosidase [2] = molecular target: T1, β-galactosidase; format: biochemical; settings: 30 minutes, 250 mM sodium phosphate buffer pH 7.4, excitation 550 nm
Method: Absorption spectrum variation and fluorescence spectrum variation (excitation wavelength: 550 nm) caused by enzyme reaction of β-galactosidase and the enzyme-specific retainable fluorescent compound of the present invention 2-CHF2-HMDER-βGal, 4-CHF2-HMDER-βGal, or 4-CH2F-HMDER-βGal for 30 minutes was measured in the presence of a 250 mM sodium phosphate buffer solution (pH: 7.4). Measurement was performed using a Shimadzu UV-2450 (manufactured by Shimadzu Corporation) and a Hitachi F-7000 (manufactured by Hitachi, Ltd.).

[3] = test system: Wing primordia (wing discs) of a (en-lacZ) fruit fly expressing β-galactosidase; test: Fluorescence imaging of non-fixed biological tissue having β-galactosidase activity; settings: 20 μM, 30 minutes, room temperature
From the text: The observation conditions were as follows: Ar: 40% to 25%, excitation light: 314 nm, emission wavelength: 535 to 595 nm (HyD2), 20× magnification.

[4] = test system: fruit fly fat body overexpressing β-galactosidase; settings: 10 μM, fat bodies of third-instar fly
Method: In order to analyze cells in fruit fly (Drosophila melanogaster) fat body, overexpression of β-galactosidase was induced by crossing UAS-lacZ with hs-flp^122; Actin>y>Gal4 using a flip-out technique. To perform living-cell fluorescence imaging, fat bodies were dissected from a third-instar (final instar) fly and incubated for 29 minutes in a culture medium including 10 μM 4-CH2F-HMDER-βGal and 16 μM Hoechst 33342 (cell nuclear stain), and the fat bodies were washed with PBS and immersed in 80% glycerol. To perform immunostaining, the dissected adipocytes were immersed for 20 minutes in PBS containing 4% paraformaldehyde (PFA) and fixed. […] The observation conditions were as follows: (Hoeschst 33342) excitation light: 405 nm, observation wavelength: 415 to 490 nm, (4-C2F-HMDER-βGal) excitation light: 514 nm, observation wavelength: 525 to 600 nm, (Alexa 647 modified secondary antibodies) excitation light: 633 nm, observation wavelength: 640 to 700 nm, 40× magnification.

HEK-lacZ cells [5] = test: Fluorescence imaging of living cells expressing β-galactosidase (confocal microscope); settings: for fluorescence imaging of β-galactosidase activity of individual cells: mixture of HEK-LacZ cells and HEK cells, without washing
Method: HEK cells, HEK-lacZ cells, and a mixture thereof were incubated (at 37° C. in the presence of 5% CO2) for 30 minutes together with 1 μM 4-CH2F-HMDER-βGal or HMDER-βGal, after which a fluorescence image and a differential interference image (DIC) of the cells were acquired using a confocal microscope, before and after washing twice with culture medium. […] A TCS SP5 X (manufactured by Leica) equipped with white light laser and an HCX PL APO CS 40×/1.25 objective lens (manufactured by Leica) was used as the confocal microscope, which was controlled by LAS AF software. The observation conditions were as follows: white light laser (WLL): 80% to 25%, excitation wavelength: 525 nm, observation wavelength: 535 to 595 nm, gain: 800 V (PMT1)/350 V (Scan-DIC), offset: 0%, pinhole: 67.88 μM (Airy disk).

HEK-lacZ cells [6] = test: Detection of β-galactosidase activity in living cells using flow cytometry; format: cell-based; settings: mixture of HEK-LacZ and HEK cells, 1 μM, 30 minutes, excitation 488 nm
Method: These cells were analyzed by excitation light having a wavelength of 488 nm using an Accuri C6 (Accuri Cytometers, Inc.) flow cytometer.

[7] = test system: wing primordia (wing discs) with arm-lacZ / His2Av-mRFP1 cells; settings: 10 μM, 30 minutes, non-fixed wing primordia
Method: A male His2Av-mRFP1, FRT80B/TM6B fruit fly (Drosophila melanogaster) and a female hs-flp; arm-lacZ FRT80B fruit fly were crossed, a heat shock at a temperature of 37° C. for 1 hour was applied to the offspring at the first-instar larval stage 30 hours after hatching thereof, and cells having the following three genotypes were expressed in the wing primordia (wing discs): (1) cells expressing only β-galactosidase (arm-lacZ), (2) cells expressing only red fluorescent protein (mRFP1) (His2Av-mRFP1), and (3) cells expressing both β-galactosidase and mRFP1 (arm-lacZ/His2Av-mRFP1). […] The observation conditions were as follows: (4-CH2F-HMDER-βGal) excitation light: 514 nm, observation wavelength: 525 to 585 nm, (mRFP1) excitation light: 594 nm, emission wavelength: 610 to 700 nm, 63× magnification.

[8] = test system: fruit fly (esg-lacZ) expressing β-galactosidase in the midgut; settings: midgut fixed with 4% PFA, reacted 10 minutes
Method: A fruit fly (esg-lacZ) expressing β-galactosidase in the midgut thereof was dissected and fixed with 4% FPA. Then, 4-CH2F-HMDER-βGal was added and reacted for 10 minutes.

[9] = test system: ovarian cancer cells SHIN3; settings: intraperitoneal administration, observed 1 hour later, SHIN3 cancer model mouse
Method: A cancer model mouse inoculated with ovarian cancer cells SHIN3 was produced. Acidic β-galactosidase activity is known to be elevated in ovarian cancer cells. 4-CH2F-HMDER-βGal was intraperitoneally administered to the cancer model mouse, and fluorescence was observed 1 hour later using a Maestro in-vivo imaging system (CRi). The observation conditions were as follows: excitation light: 490 to 530 nm, observation wavelength: 550 to 800 nm.

T1 sequence (P00722 2-1024): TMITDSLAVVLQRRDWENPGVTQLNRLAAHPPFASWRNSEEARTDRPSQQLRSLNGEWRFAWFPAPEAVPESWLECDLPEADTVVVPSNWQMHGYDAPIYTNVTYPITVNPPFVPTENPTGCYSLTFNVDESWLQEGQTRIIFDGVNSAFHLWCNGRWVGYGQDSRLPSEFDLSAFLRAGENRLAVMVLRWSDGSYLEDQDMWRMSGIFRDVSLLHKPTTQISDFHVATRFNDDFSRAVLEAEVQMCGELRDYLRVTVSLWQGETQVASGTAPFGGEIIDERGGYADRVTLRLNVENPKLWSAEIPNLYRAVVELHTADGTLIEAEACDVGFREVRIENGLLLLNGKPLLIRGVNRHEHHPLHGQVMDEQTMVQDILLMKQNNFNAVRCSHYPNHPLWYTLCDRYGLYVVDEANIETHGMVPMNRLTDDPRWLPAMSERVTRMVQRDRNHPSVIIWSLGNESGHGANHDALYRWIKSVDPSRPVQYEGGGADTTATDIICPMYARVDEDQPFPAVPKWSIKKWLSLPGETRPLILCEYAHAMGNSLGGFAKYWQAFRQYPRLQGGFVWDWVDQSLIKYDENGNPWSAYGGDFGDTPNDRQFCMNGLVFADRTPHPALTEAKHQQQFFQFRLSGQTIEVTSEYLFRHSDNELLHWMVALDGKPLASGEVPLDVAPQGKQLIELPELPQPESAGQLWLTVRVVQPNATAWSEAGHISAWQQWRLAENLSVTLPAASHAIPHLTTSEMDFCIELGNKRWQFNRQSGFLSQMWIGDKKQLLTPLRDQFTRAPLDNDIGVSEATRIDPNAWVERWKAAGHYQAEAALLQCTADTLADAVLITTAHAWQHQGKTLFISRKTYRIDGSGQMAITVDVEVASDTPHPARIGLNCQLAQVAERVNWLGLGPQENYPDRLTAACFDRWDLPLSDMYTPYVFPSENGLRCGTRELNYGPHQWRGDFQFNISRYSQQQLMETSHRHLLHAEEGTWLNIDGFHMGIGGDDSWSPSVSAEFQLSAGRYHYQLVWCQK

Row | SMILES | fluorescence at the band of BSA after SDS-PAGE (β-galactosidase [1]) | fluorescence labeling of intracellular protein after SDS-PAGE (HEK-lacZ cell lysate) | fluorescence emission as a result of enzyme reaction with β-galactosidase (β-galactosidase [2]) | selective fluorescence imaging of the region having β-galactosidase activity [3] | fluorescence imaging of β-galactosidase-expressing cells in fat body [4] | fluorescence of HEK-LacZ cells (HEK-lacZ cells [5]; 1 μM, 30 minutes, observed without washing) | change in fluorescence intensity after washing (retention in cells) (HEK-lacZ cells [5]; 1 μM, 30 minutes, washed twice with culture medium) | fluorescence imaging of fixed samples (HEK-lacZ cells [5]; cells fixed with 4% PFA for 10 minutes after incubation) | fluorescence imaging of β-galactosidase activity of individual cells (HEK-lacZ cells [5]; 1 μM, 30 minutes) | differentiation of HEK-LacZ cells and HEK cells by flow cytometry (HEK-lacZ cells [6]) | fluorescence at the band of BSA after SDS-PAGE, sample not including β-galactosidase (β-galactosidase [1]; no β-galactosidase (lane 1)) | visualization of mosaic pattern of β-galactosidase-positive cells [7] | single-cell fluorescence imaging in fixed tissue [8] | fluorescence labeling of intracellular protein after SDS-PAGE, HEK cells not expressing β-galactosidase (HEK-lacZ cell lysate; 1.5 mg/mL HEK cell lysate (lane 1)) | cancer-site-selective fluorescence imaging [9]
1 | CCN(CC)c1ccc2c(c1)Oc1cc(O[C@@H]3O[C@H](CO)[C@H](O)[C@H](O)[C@H]3O)c(C(F)F)cc1C21OCc2ccccc21 (stereo partly drawn) [2-CHF2-HMDER-βGal, (2S,3R,4S,5R,6R)-2-((6′-(diethylamino)-2′-(difluoromethyl)-3H-spiro[isobenzofuran-1,9′-xanthen]-3′-yl)oxy)-6-(hydroxymethyl)tetrahydro-2H-pyran-3,4,5-triol] | Fluorescence was observed at the band of BSA | Fluorescence labeling to the intracellular protein was confirmed | emitted fluorescence | – | – | – | – | – | – | – | – | – | – | – | –
2 | CCN(CC)c1ccc2c(c1)Oc1c(ccc(O[C@@H]3O[C@H](CO)[C@H](O)[C@H](O)[C@H]3O)c1CF)C21OCc2ccccc21 (some centres unmarked) [4-CH2F-HMDER-βGal] | Fluorescence was observed at the band of BSA | Fluorescence labeling to the intracellular protein was confirmed | emitted fluorescence | selective fluorescence imaging of the region of interest (posterior section) having β-galactosidase activity was possible | it is possible to perform fluorescent imaging of cells of interest in which β-galactosidase is expressed | exhibited clear fluorescence | almost no change in fluorescence intensity | Fluorescence imaging with the fixed samples was also possible | a definite difference in fluorescence level among individual cells was observed | possible to clearly differentiate between these cell types | Fluorescence was not observed | the mosaic pattern of the cells having the three genotypes described above was clearly visualized | it was possible to confirm a cell emitting fluorescence in a tissue | Fluorescence was not confirmed | can be applied in cancer-site-selective fluorescence imaging
3 | CCN(CC)c1ccc2c(c1)Oc1c(ccc(O[C@@H]3O[C@H](CO)[C@H](O)[C@H](O)[C@H]3O)c1C(F)F)C21OCc2ccccc21 (stereo partly drawn) [4-CHF2-HMDER-βGal, (2S,3R,4S,5R,6R)-2-((3′-(diethyiamino)-5′-(difluoromethyl)-3H-spiro[isobenzofuran-1,9′-xanthen]-6′-yl)-oxy)-6-(hydroxymethyl)tetrahydro-2H-pyran-3,4,5-triol] | Fluorescence was observed at the band of BSA | Fluorescence labeling to the intracellular protein was confirmed | emitted fluorescence | – | – | – | – | – | – | – | – | – | – | – | –
4 | CCN(CC)c1ccc2c(c1)Oc1cc(OC3OC(CO)C(O)C(O)C3O)ccc1C21OCc2ccccc21 (centres unmarked) [HMDER-βGal, reference compound] | Fluorescence was not observed | Fluorescence was not confirmed | – | the region of interest having β-galactosidase activity could not be discerned | – | – | – | – | fluorescence imaging of β-galactosidase activity of individual eels was not possible | the cells could not be differentiated | – | – | – | – | –
